Key:
[1] = test system: bone metastases of LNCaP-luc prostate cancer; experiment: Biodistribution in mice with bone metastases of LNCaP-luc prostate cancer (gamma counter); type: in vivo, mouse
Procedure: An in vivo imaging system was used for bioluminescence imaging (BLI) to visualize ASID mice with bone metastases of LNCaP-luc prostate cancer before the administration of ^177Lu-PSMA-617 (Figure 4A). Subsequently, ^177Lu-PSMA-617 (~37 MBq of Lu-177) was administered intravenously to mice with bone metastases, and NanoSPECT/CT imaging was performed at 4, 24, and 48 h post-administration (Figure 4B). Additionally, the mice were sacrificed, and their organs and tissues were extracted for quantitative analysis using a gamma counter at 1, 4, 24, and 48 h after injection (Figure 4C).
LNCaP-luc cells were harvested from culture and resuspended to 2 × 10^7 cells/mL in PBS. The cells were combined with an equal volume of Matrigel (BD Biosciences, Bedford, MA, USA) such that 5 × 10^5 cells were prepared for injection into the right tibia of anesthetized (inhaled anesthetic of 1–2% isoflurane) ASID mice. Intratibial injections were performed using a 29-gauge, 0.5-inch needle inserted through the tibial plateau of the flexed knee as described previously. The tumor was imaged, detected, and measured using a Bruker Small Animal Optical Imaging System (In Vivo Xtreme; Billerica, MA, USA). Mice were anesthetized with a mixture of oxygen and isoflurane, then intraperitoneally injected with 100 μL of D-luciferin (Xenogen; 30 mg/mL in PBS).
Mice received an intravenous injection of ^177Lu-PSMA-617 (equivalent to 37 MBq of ^177Lu) at 45 days after tumor implantation. The NanoSPECT/CT (Mediso Medical Imaging Systems, Arlington, VA, USA) was used to image in vivo. After the administration of ^177Lu-PSMA-617, mice inhaled an anesthetic containing 1–2% isoflurane during imaging acquisition. SPECT and X-ray CT images were obtained at 1, 4, 24, and 48 h after injection. NanoSPECT imaging was acquired using nine multipinhole gamma detectors and high-resolution collimators. The energy window was set to […] ± 10%; the image size was set to 256 × 256, and the field of view of 60 mm × 100 mm was used. Mice received an intravenous injection of ^177Lu-PSMA-617 (equivalent to 37 MBq of ^177Lu) at 45 days after tumor implantation. The distribution of ^177Lu-PSMA-617 in the mice bearing tumors was evaluated by a gamma counter (PerkinElmer, Waltham, MA, USA). The mice were sacrificed by carbon dioxide euthanasia at 1, 4, 24, and 48 h after administration. The blood, tumor, and normal organ/tissue were collected, and the uptake of radioactivity was measured by a gamma counter. The distribution data obtained using radioactivity count methods are plotted as %ID/g.

PSMA-positive tumors = test system: PSMA-positive tumors; set-up: method as in PMID 31399803; conditions: single intravenous dose of 111 MBq; cited from earlier work
[2] = set-up: method as in PMID 25573634; conditions: over 96 h; cited from earlier work
[3] = test system: bone metastasis of LNCaP/Luc prostate cancer; experiment: Therapeutic efficacy in mice with bone metastasis of LNCaP/Luc prostate cancer; type: in vivo, mouse; conditions: for median survival time: tail vein, day 0, control 26 days; for lifespan increase: vs control
Procedure: Therapeutic response monitoring was performed using bioluminescence imaging on days 3, 7, 15, and 30. […] The survival curves presented in Figure 6C further highlight the therapeutic effect. The median survival time for the control group (receiving normal saline) was 26 days, whereas mice treated with 1mCi (37 MBq) and 3mCi (111 MBq) of ^177Lu-PSMA-617 had median survival times of 34 days (p = 0.01) and 40 days (p = 0.02), respectively.
The mice were intratibially injected with LNCaP/Luc cells. After 45 days of tumor-implantation, the mice were assigned to three groups, including the saline control (n = 6), a low dose of ^177Lu-PSMA-617 (n = 8), and a high dose of ^177Lu-PSMA-617 (n = 9). The mice were administered via the tail vein with equivalent to 1mCi (37 MBq) and 3mCi (111 MBq) of ^177Lu-PSMA-617 on day 0. Body weight changes were measured during observation days. The death of mice was recorded for the survival curve by the Kaplan–Meier method. A humane endpoint was defined as a decrease in body weight of 20% or more compared with the body weight measured on the day of tumor inoculation. The survival rate of all groups was analyzed by the log-rank test, and p < 0.05 was considered significant difference. The median survival time was presented in efficacy studies. The median survival time was calculated as the smallest survival time for which the survivor function is less than or equal to 0.5. The therapeutic responses were monitored by bioluminescence imaging during observation days. The BNL/Luc tumor of mice was imaged and measured using the IVIS Imaging system and Living Imaging software (Xenogen, Alameda, CA, USA; available at https://www.perkinelmer.com) on days 3, 7, 15, and 30.

With `O=C([O-])CN1CCN(CC(=O)[O-])CCN(CC(=O)NCC2CCC(C(=O)N[C@@H](Cc3ccc4ccccc4c3)C(=O)NCCCC[C@H](NC(=O)N[C@@H](CCC(=O)O)C(=O)O)C(=O)O)CC2)CCN(CC(=O)[O-])CC1.[177Lu+3]` (stereo partly drawn) [^177Lu-PSMA-617] the tumor-to-blood ratio ([1]; 1 h post-injection) was 69.5, the tumor-to-kidney ratio ([1]; 1 h post-injection) was 0.3 and the tumor-to-muscle ratio ([1]; 1 h post-injection) was 60.2. The uptake in kidneys ([1]; 1 h post-injection, i.v., ~37 MBq) was 43.83 ± 3.41 %IA/g, the “uptake in LNCaP tumors” value ([1]; 4 h post-injection, i.v., ~37 MBq) was 23.31 ± 0.94 %IA/g and the tumor-to-blood ratio ([1]; 24 h post-injection (maximum)) was 434.4. The tumor-to-muscle ratio ([1]; 24 h post-injection (peak)) was 857.4, the “uptake in LNCaP tumors” value ([1]; 24 h post-injection, i.v., ~37 MBq) was 12.88 ± 0.55 %IA/g and the tumor-to-kidney ratio ([1]; 48 h post-injection (maximum)) was 26.3. For the same compound, the “uptake in liver, lungs and spleen” value ([1]; i.v., ~37 MBq) was “low uptake”, the urinary clearance ([1]; within 24 h) was > 90% and the median survival (PSMA-positive tumors) was 130 days. The “stability in human serum” value [2] was > 95%, the median survival time ([3]; 1mCi (37 MBq), p = 0.01) was 34 days and the lifespan increase ([3]; 1mCi (37 MBq)) was 30.7%. The median survival time ([3]; 3mCi (111 MBq), p = 0.02) was 40 days, the lifespan increase ([3]; 3mCi (111 MBq)) was 53.8% and the “bioluminescence signal intensity vs controls” value ([3]; days 3, 7, 15 and 30 after treatment) was “significantly lower signal intensities”.

— article PMC12250129, “Exploring the Therapeutic Potential of ^177Lu-PSMA-617 in a Mouse Model of Prostate Cancer Bone Metastases” (International Journal of Molecular Sciences, 2025)
